Assay results published in patent US10219516B2, “Molecules having pesticidal utility, and intermediates, compositions, and processes, related thereto” (priority 2015, dated 2019).

Columns and labels:
Format in all cases: in vivo
[1] = test system: Beet Armyworm (Spodoptera exigua, LAPHEG); test: Bioassay on Beet Armyworm (BAW), 128-well diet tray assay; details: Species BAW (Beet Armyworm), read-out: BAW (Biological Results, rating)
Summary of the method: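 Test molecule dissolved in acetone-water 90:10 is applied at 50 μg/cm^2 onto artificial diet and allowed to dry. Second instar larvae, one to five per well, are then added, and trays are vented and kept at 25° C. for five to seven days before mortality is scored.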

[2] = test system: Cabbage Looper (Trichoplusia ni, TRIPNI); test: Bioassay on Cabbage Looper (CL), 128-well diet tray assay; details: Trichoplusia ni; Species CL (Cabbage Looper); read-out: CL (Biological Results, rating)
Summary of the method: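 Using eight wells per molecule, artificial diet was dosed at 50 μg/cm^2 with compound in 90:10 acetone-water and dried before one to five second-instar larvae were added per well. Covered vented trays were kept at 25° C. with 14:10 light-dark for five to seven days, then per-well percent mortality was recorded and averaged.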

[3] = test system: Yellow Fever Mosquito (Aedes aegypti, AEDSAE); test: Bioassay on Yellow Fever Mosquito (YFM), 96-well plate larval assay; details: Species YFM (Yellow Fever Mosquito)
Summary of the method: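 Compound stocks at 4000 ppm in DMSO were diluted with 90:10 water/acetone, and 15 μL aliquots were dispensed into six replicate plates. About 1-day-old larvae in liver-powder water were added per well. Plates were covered and held at room temperature for 3 days before each well was scored for mortality.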

Structure (SMILES) | pest or weed control at 50 µg/cm2 [1] [%] | pest or weed control at 50 µg/cm2 [2] [%] | YFM (Biological Results, rating) [3]
Cc1cc([C@H]2[C@H](C(=O)Nc3ccc(Cl)c(C(=O)Nc4ccc(F)cc4)c3)C2(Cl)Cl)cc(Cl)c1Cl (relative stereo) [F123, trans-2-Chloro-5-(2,2-dichloro-3-(3,4-dichloro-5-methylphenyl)cyclopropane-1-carboxamido)-N-(4-fluorophenyl)benzamide] | 50 to 100 | 50 to 100 | B (More than 0-Less than 80)
O=C(Nc1ccc(F)cc1)c1cc(NC(=O)[C@H]2[C@H](c3cc(Cl)cc(Cl)c3)C2(Cl)Cl)ccc1OC(F)(F)F (relative stereo) [F135, trans-5-(2,2-Dichloro-3-(3,5-dichlorophenyl)cyclopropane-1-carboxamido)-N-(4-fluorophenyl)-2-(trifluoromethoxy)benzamide] | 50 to 100 | 50 to 100 | A (80-100)
O=C(Nc1ccc(F)cc1)c1cc(Cl)cc(NC(=O)[C@H]2[C@H](c3cc(Cl)cc(Cl)c3)C2(Cl)Cl)c1 (relative stereo) [F136, trans-3-Chloro-5-(2,2-dichloro-3-(3,5-dichlorophenyl)cyclopropane-1-carboxamido)-N-(4-fluorophenyl)benzamide] | 50 to 100 | 50 to 100 | A (80-100)
O=C(Nc1c(F)cccc1F)c1cc(NC(=O)[C@H]2[C@H](c3ccc(F)c(Cl)c3)C2(Cl)Cl)ccc1Cl (relative stereo) [F161, trans-2-Chloro-5-(2,2-dichloro-3-(3-chloro-4-fluorophenyl)cyclopropane-1-carboxamido)-N-(2,6-difluorophenyl)benzamide] | 50 to 100 | 50 to 100 | A (80-100)
O=C(Nc1c(F)cccc1F)c1cc(NC(=O)[C@H]2[C@H](c3cc(Cl)cc(Br)c3)C2(Cl)Cl)ccc1Cl (relative stereo) [F164, trans-5-(3-(3-Bromo-5-chlorophenyl)-2,2-dichlorocyclopropane-1-carboxamido)-2-chloro-N-(2,6-difluorophenyl)benzamide] | 50 to 100 | 50 to 100 | A (80-100)
CN(C)c1ccc(NC(=O)c2cc(NC(=O)[C@H]3[C@H](c4cc(Cl)cc(Cl)c4)C3(Cl)Cl)ccc2Cl)cc1 (relative stereo) [F171, trans-2-Chloro-5-(2,2-dichloro-3-(3,5-dichlorophenyl)cyclopropane-1-carboxamido)-N-(4-(dimethylamino)phenyl)benzamide] | 50 to 100 | 50 to 100 | A (80-100)
Nc1ccc(NC(=O)c2cc(NC(=O)[C@H]3[C@H](c4cc(Cl)cc(Cl)c4)C3(Cl)Cl)ccc2Cl)cc1F (relative stereo) [F174, trans-N-(4-Amino-3-fluorophenyl)-2-chloro-5-(2,2-dichloro-3-(3,5-dichlorophenyl)cyclopropane-1-carboxamido)benzamide] | 50 to 100 | 50 to 100 | A (80-100)
Nc1ccc(NC(=O)c2cc(NC(=O)[C@H]3[C@H](c4cc(Cl)cc(Cl)c4)C3(Cl)Cl)ccc2Cl)c(F)c1 (relative stereo) [F175, trans-N-(4-amino-2-fluorophenyl)-2-chloro-5-(2,2-dichloro-3-(3,5-dichlorophenyl)cyclopropane-1-carboxamido)benzamide] | 50 to 100 | 50 to 100 | A (80-100)
CNc1ccc(NC(=O)c2cc(NC(=O)[C@H]3[C@H](c4cc(Cl)cc(Cl)c4)C3(Cl)Cl)ccc2Cl)cc1F (relative stereo) [F176, trans-2-Chloro-5-(2,2-dichloro-3-(3,5-dichlorophenyl)cyclopropane-1-carboxamido)-N-(3-fluoro-4-(methylamino)phenyl)benzamide] | 50 to 100 | 50 to 100 | A (80-100)
CNc1ccc(NC(=O)c2cc(NC(=O)[C@H]3[C@H](c4cc(Cl)cc(Cl)c4)C3(Cl)Cl)ccc2Cl)c(F)c1 (relative stereo) [F177, trans-2-Chloro-5-(2,2-dichloro-3-(3,5-dichlorophenyl)cyclopropane-1-carboxamido)-N-(2-fluoro-4-(methylamino)phenyl)benzamide] | 50 to 100 | 50 to 100 | A (80-100)
COc1c(Cl)cc([C@H]2[C@H](C(=O)Nc3ccc(Cl)c(C(=O)Nc4ccccc4)c3)C2(Cl)Cl)cc1Cl (relative stereo) [F179, trans-2-chloro-5-(2,2-dichloro-3-(3,5-dichloro-4-methoxyphenyl)cyclopropane-1-carboxamido)-N-phenylbenzamide] | 50 to 100 | 50 to 100 | B (More than 0-Less than 80)
COc1c(Cl)cc([C@H]2[C@H](C(=O)Nc3ccc(Cl)c(C(=O)Nc4ccc(F)cc4F)c3)C2(Cl)Cl)cc1Cl (relative stereo) [F180, trans-2-Chloro-5-(2,2-dichloro-3-(3,5-dichloro-4-methoxyphenyl)cyclopropane-1-carboxamido)-N-(2,4-difluorophenyl)benzamide] | 50 to 100 | 50 to 100 | A (80-100)
N#Cc1cc(F)ccc1NC(=O)c1cc(NC(=O)[C@H]2[C@H](c3ccc(Cl)c(Cl)c3)C2(Cl)Cl)ccc1Cl (relative stereo) [F190, trans-2-Chloro-N-(2-cyano-4-fluorophenyl)-5-(2,2-dichloro-3-(3,4-dichlorophenyl)cyclopropane-1-carboxamido)benzamide] | 50 to 100 | 50 to 100 | A (80-100)
O=C(Nc1ccc(I)cc1)c1cc(NC(=O)[C@H]2[C@H](c3cc(Cl)cc(Cl)c3)C2(Cl)Cl)ccc1Cl (relative stereo) [F193, trans-2-Chloro-5-(2,2-dichloro-3-(3,5-dichlorophenyl)cyclopropane-1-carboxamido)-N-(4-iodophenyl)benzamide] | 50 to 100 | 50 to 100 | B (More than 0-Less than 80)
O=C(Nc1cccc(I)c1)c1cc(NC(=O)[C@H]2[C@H](c3cc(Cl)cc(Cl)c3)C2(Cl)Cl)ccc1Cl (relative stereo) [F194, trans-2-Chloro-5-(2,2-dichloro-3-(3,5-dichlorophenyl)cyclopropane-1-carboxamido)-N-(3-iodophenyl)benzamide] | 50 to 100 | 50 to 100 | B (More than 0-Less than 80)
Cc1cc(N)ccc1NC(=O)c1cc(NC(=O)[C@H]2[C@H](c3cc(Cl)cc(Cl)c3)C2(Cl)Cl)ccc1Cl (relative stereo) [F195, trans-N-(4-Amino-2-methylphenyl)-2-chloro-5-(2,2-dichloro-3-(3,5-dichlorophenyl)cyclopropane-1-carboxamido)benzamide] | 50 to 100 | 50 to 100 | A (80-100)
CNc1ccc(NC(=O)c2cc(NC(=O)[C@H]3[C@H](c4cc(Cl)cc(Cl)c4)C3(Cl)Cl)ccc2Cl)c(C)c1 (relative stereo) [F196, trans-2-Chloro-5-(2,2-dichloro-3-(3,5-dichlorophenyl)cyclopropane-1-carboxamido)-N-(2-methyl-4-(methylamino)phenyl)benzamide] | 50 to 100 | 50 to 100 | A (80-100)
COc1ccc(NC(=O)c2cc(NC(=O)[C@H]3[C@H](c4cc(Cl)cc(Cl)c4)C3(Cl)Cl)ccc2Cl)cc1N (relative stereo) [F199, trans-N-(3-Amino-4-methoxyphenyl)-2-chloro-5-(2,2-dichloro-3-(3,5-dichlorophenyl)cyclopropane-1-carboxamido)benzamide] | 50 to 100 | 50 to 100 | A (80-100)
CNc1cc(NC(=O)c2cc(NC(=O)[C@H]3[C@H](c4cc(Cl)cc(Cl)c4)C3(Cl)Cl)ccc2Cl)ccc1OC (relative stereo) [F200, trans-2-Chloro-5-(2,2-dichloro-3-(3,5-dichlorophenyl)cyclopropane-1-carboxamido)-N-(4-methoxy-3-(methylamino)phenyl)benzamide] | 50 to 100 | 50 to 100 | B (More than 0-Less than 80)
Nc1cccc(NC(=O)c2cc(NC(=O)[C@H]3[C@H](c4cc(Cl)cc(Cl)c4)C3(Cl)Cl)ccc2Cl)c1 (relative stereo) [F201, trans-N-(3-Aminophenyl)-2-chloro-5-(2,2-dichloro-3-(3,5-dichlorophenyl)cyclopropane-1-carboxamido)benzamide] | 50 to 100 | 50 to 100 | A (80-100)
CNc1cccc(NC(=O)c2cc(NC(=O)[C@H]3[C@H](c4cc(Cl)cc(Cl)c4)C3(Cl)Cl)ccc2Cl)c1 (relative stereo) [F202, trans-2-Chloro-5-(2,2-dichloro-3-(3,5-dichlorophenyl)cyclopropane-1-carboxamido)-N-(3-(methylamino)phenyl)benzamide] | 50 to 100 | 50 to 100 | A (80-100)
